Results from patent US5091425A, “5-(heterocyclylalkanoyl)amino-4-hydroxypentanamides” (Imperial Chemical Industries plc, priority 1988, dated 1992).

Molecular target: T1, partially purified human renin (Homo sapiens, UniProt P00797)
T1 sequence (P00797 67-406): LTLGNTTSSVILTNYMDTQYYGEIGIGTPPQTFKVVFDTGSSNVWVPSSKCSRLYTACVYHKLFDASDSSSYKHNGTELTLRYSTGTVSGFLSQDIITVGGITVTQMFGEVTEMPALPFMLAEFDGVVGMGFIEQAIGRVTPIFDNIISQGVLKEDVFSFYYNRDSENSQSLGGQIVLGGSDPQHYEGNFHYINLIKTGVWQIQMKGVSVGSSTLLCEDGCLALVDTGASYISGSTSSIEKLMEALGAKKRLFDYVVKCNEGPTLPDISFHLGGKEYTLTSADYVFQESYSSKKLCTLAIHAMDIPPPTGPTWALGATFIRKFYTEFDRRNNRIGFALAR
Assay: in vitro inhibition of renin-catalysed angiotensin I generation (radioimmunoassay)
Format: biochemical
Settings: human renin with angiotensinogen; angiotensin I by radioimmunoassay; read-out: IC50 (concentration for 50% inhibition of the renin catalysed reaction)
Protocol: The inhibition of the catalytic activity of renin, and in particular of human renin, may be assessed in vitro using a routine laboratory procedure involving the incubation of a test compound initially at a concentration of 100 micromolar in a buffered mixture containing appropriate concentrations of partially purified human renin and the natural renin substrate angiotensinogen. The formation of the angiotensin known as angiotensin I (which is assayed by a standard radioimmunoassay using procedures well known in the art) is inhibited by those compounds which inhibit the action of renin and the degree of inhibition is readily determined by comparing the angiotensin I generation rate in the presence of the test compound (at the specified test concentration) with the control rate of angiotensin I generation in the absence of the test compound.
In this standard test procedure, compounds which show at least 30% inhibition are retested at lower concentrations to determine their inhibitory potency. For determination of the IC50 (concentration for 50% inhibition of the renin catalysed reaction), concentrations are ordinarily chosen to allow testing over at least four orders of magnitude centred about the predicted approximate IC50, which latter is subsequently determined from a plot of percentage inhibition against concentration of the test compound. […]

IC50: 0.2 nM
SMILES: CCCCNC(=O)[C@@H](C[C@H](O)[C@H](CC1CCCCC1)NC(=O)C(Cc1cccnc1)c1nnc2c(CCC)nc(-c3cccnc3)cn12)C(C)C (mixture of isomers) [Example 6, (2S,4S,5S)-N-butyl-6-cyclohexyl-4-hydroxy-2-isopropyl-5-[(2RS)-2-(8-propyl-6-(3-pyridyl)-1,2,4-triazolo[4,3-a]pyrazin-3-yl)-3-(3-pyridyl)propionamido]hexanamide]
